Two molecules from patent US12628802B2, “Genetically modified rat having PKHD1L1 gene with point mutation and methods for its construction, detection and use” (HUASHAN HOSPITAL AFFILIATED TO FUDAN UNIVERSITY, priority 2022, dated 2026) can be followed below.

In one test the test system is wild-type (WT) rats. The experiment in a line: PTZ-induced epilepsy model, wild-type rats. It counts as in vivo, rat. Here is the method:
(§1) Subsequently, the epileptic susceptibility of PKHD1L1+/− rats was studied using a PTZ-induced epilepsy model: A total of 10 male PKHD1L1+/− rats and 10 male wild-type (WT) rats with body weights matched with age (in weeks) were selected for inducing epileptic seizures with PTZ (40 mg/kg). The dose of PTZ selected is lower than the conventional dose in such animal modeling. Only 2 out of the 10 wild-type rats (20%), but 7 out of the 10 (70%) PKHD1L1+/− rats, were induced to have grand mal seizures of grade 4-5 (see FIG. 13A).

Another test concerns PKHD1L1+/− rats. The experiment in a line: PTZ-induced epilepsy model, PKHD1L1+/- rats. The following applies: PTZ 40 mg/kg. It counts as in vivo, rat. Here is the method: as §1
In test [1] the test system is pyramidal neurons in the cerebral cortex. The experiment in a line: Patch clamp recording of sEPSC and sIPSC of cortical pyramidal neurons in brain slices. The following applies: epilepsy group (PKHD1L1+/− rats) after H89 treatment. The test is classed as cell-based, rat. From the text: Results of Electrophysiological Examination of Transgenic Animal Brain Slices
In transgenic animals (PKHD1L1+/− rats), neuronal excitability increased, and H89 reduced the frequency of spontaneous excitatory post synaptic currents (sEPSC) in pyramidal neurons in the cerebral cortex.
A patch clamp technique was used to record sEPSC and sIPSC (e.g., spontaneous inhibitory post synaptic currents) of cortical pyramidal neurons […], and to observe the changes in excitatory synaptic transmission and inhibitory synaptic transmission of pyramidal neurons in each group of rats, so as to reflect any changes in neuronal excitability.

The test system is the same in test [2]. The experiment in a line: Recording of Na+ and K+ currents in pyramidal neurons in brain slices. It counts as cell-based, rat. Conditions: control, epilepsy and epilepsy+H89 groups compared. Here is the method:
Neuronal excitability is related to Na+ and K+ currents, so the Na+ and K+ currents in pyramidal neurons in the cerebral cortex of each group of rats (e.g., PKHD1L1+/− and wild-type) were recorded. As shown in FIGS. 15A-B, there was no difference in Na+ and K+ currents in pyramidal neurons of rats among all groups (3 young rats in each group, 6 cells in the control [WT] group, 6 cells in the epilepsy [e.g., PKHD1L1+/−] group, and 6 cells in the epilepsy+H89 group), […].

Test [3] has the same test system. Nature of the test: Recording of the action potential of pyramidal neurons in brain slices. It counts as cell-based, rat. Here is the method:
H89 can reduce the excitability of pyramidal neurons in the cerebral cortex of rats with epilepsy. In order to further confirm the excitability of pyramidal neurons in the cerebral cortex, the action potential of pyramidal neurons was recorded. Action potential can intuitively reflect the excitability of neurons. […] Compared with the control group (e.g., WT rats), the positive potential of the epileptic group was decreased after H89 treatment, and the neuronal potential was increased after H89 treatment (P>0.05). There was no difference in the peak and half-duration of the action potential between the two groups. […] It was shown that a reduced neuron action potential threshold in epileptic rats indicates […] of pyramidal neurons, and H89 reversed this trend and improved epileptic symptoms in rats (FIGS. 16A-F).

“Also recorded” adds a separate entry of the source.

Take `C1CCc2nnnn2CC1` [PTZ, pentylenetetrazole]: the “rats induced to have grand mal seizures of grade 4-5” value worked out at 20% in the test with wild-type (WT) rats (PTZ 40 mg/kg, 10 male wild-type rats) and 70% with PKHD1L1+/− rats (10 male PKHD1L1+/− rats). In addition, the “mean dose of PTZ required to exhibit grade 4-5 seizures” value in the test with wild-type (WT) rats (additional 5 mg/kg at 15-minute intervals, wild-type rats compared with PKHD1L1+/− rats) is given as “statistically significantly higher”. Moreover, in the test on PKHD1L1+/− rats (PKHD1L1+/− rats compared with wild-type rats), the “maximum seizure level reached” value is reported as “significantly higher”.
For the molecule `O=S(=O)(NCCNC/C=C/c1ccc(Br)cc1)c1cccc2cnccc12` [H89], in test [1], the sEPSC amplitude entry was “decreased” and the sEPSC frequency entry was “reduced; also recorded: decreased”. In test [2], the “K+ currents in pyramidal neurons” value was “no difference” and the “Na+ currents in pyramidal neurons” value is “no difference”. Moreover, in test [3] (between groups), the “half-duration of the action potential” value is recorded as “no difference” and the “peak of the action potential” value is on record as “no difference”. In addition, in test [3] (epilepsy group after H89 treatment, P<0.05), the action potential threshold result was “increased”. In test [3] (epilepsy group after H89 treatment, P>0.05), the “positive post-potential (neuronal potential) of the action potential” value was “increased”.
